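Growth conditions: 96-well plates. Treatment: test compound, 48 hours, 5 concentrations. Analysis: linear interpolation between bracketing concentrations; unreached endpoints set to highest concentration. GI50 is the concentration that inhibits growth by half. TGI: concentration producing complete growth inhibition.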
Assays:
Experiment in all cases: growth of human tumour cells (NCI), 48 h
786-0 renal = tested on: 786-0 renal
A498 renal = tested on: A498 renal
A549 NSCLC = tested on: A549 NSCLC
ACHN renal = tested on: ACHN renal
BT-549 breast = tested on: BT-549 breast
CAKI-1 renal = tested on: CAKI-1 renal
CCRF-CEM leukemia = tested on: CCRF-CEM leukemia
COLO 205 colon = tested on: COLO 205 colon
DU-145 prostate = tested on: DU-145 prostate
EKVX NSCLC = tested on: EKVX NSCLC
HCC-2998 colon = tested on: HCC-2998 colon
HCT-116 colon = tested on: HCT-116 colon
HCT-15 colon = tested on: HCT-15 colon
HL-60(TB) leukemia = tested on: HL-60(TB) leukemia
HOP-62 NSCLC = tested on: HOP-62 NSCLC
HOP-92 NSCLC = tested on: HOP-92 NSCLC
HS 578T breast = tested on: HS 578T breast
HT29 colon = tested on: HT29 colon
IGROV1 ovarian = tested on: IGROV1 ovarian
K-562 leukemia = tested on: K-562 leukemia
KM12 colon = tested on: KM12 colon
LOX IMVI melanoma = tested on: LOX IMVI melanoma
M14 melanoma = tested on: M14 melanoma
MALME-3M melanoma = tested on: MALME-3M melanoma
MCF7 breast = tested on: MCF7 breast
MDA-MB-231 breast = tested on: MDA-MB-231 breast
MDA-MB-435 = tested on: MDA-MB-435
MOLT-4 leukemia = tested on: MOLT-4 leukemia
NCI-H226 lung = tested on: NCI-H226 lung
NCI-H23 lung = tested on: NCI-H23 lung
NCI-H460 lung = tested on: NCI-H460 lung
NCI-H522 lung = tested on: NCI-H522 lung
NCI/ADR-RES ovarian = tested on: NCI/ADR-RES ovarian
OVCAR-3 ovarian = tested on: OVCAR-3 ovarian
OVCAR-4 ovarian = tested on: OVCAR-4 ovarian
OVCAR-5 ovarian = tested on: OVCAR-5 ovarian
OVCAR-8 ovarian = tested on: OVCAR-8 ovarian
PC-3 prostate = tested on: PC-3 prostate
SF-268 CNS = tested on: SF-268 CNS
SF-295 CNS = tested on: SF-295 CNS
SF-539 CNS = tested on: SF-539 CNS
SK-MEL-2 melanoma = tested on: SK-MEL-2 melanoma
SK-MEL-28 melanoma = tested on: SK-MEL-28 melanoma
SK-MEL-5 melanoma = tested on: SK-MEL-5 melanoma
SK-OV-3 ovarian = tested on: SK-OV-3 ovarian
SN12C renal = tested on: SN12C renal
SNB-19 CNS = tested on: SNB-19 CNS
SNB-75 CNS = tested on: SNB-75 CNS
SW-620 colon = tested on: SW-620 colon
T-47D breast = tested on: T-47D breast
TK-10 renal = tested on: TK-10 renal
UACC-257 melanoma = tested on: UACC-257 melanoma
UACC-62 melanoma = tested on: UACC-62 melanoma
UO-31 renal = tested on: UO-31 renal

CN1CCN(c2ccc(Nc3nc(NCCCNS(=O)(=O)c4cccc5ccccc45)c4sccc4n3)cc2)CC1
GI50 (786-0 renal): 1.78 µM
TGI (786-0 renal): 3.44 µM
GI50 (A498 renal): 2.86 µM
TGI (A498 renal): 9.4 µM
GI50 (A549 NSCLC): 3.42 µM
TGI (A549 NSCLC): 19.9 µM
GI50 (ACHN renal): 3.39 µM
TGI (ACHN renal): 10.6 µM
GI50 (BT-549 breast): 5.23 µM
TGI (BT-549 breast): 21.4 µM
GI50 (CAKI-1 renal): 3.85 µM
TGI (CAKI-1 renal): 14.7 µM
GI50 (CCRF-CEM leukemia): 3.35 µM
TGI (CCRF-CEM leukemia): > 100 µM
GI50 (COLO 205 colon): 2.12 µM
TGI (COLO 205 colon): 4.31 µM
GI50 (DU-145 prostate): 6.23 µM
TGI (DU-145 prostate): 20.5 µM
GI50 (EKVX NSCLC): 7.21 µM
TGI (EKVX NSCLC): 20.7 µM
GI50 (HCC-2998 colon): 1.97 µM
TGI (HCC-2998 colon): 4.37 µM
GI50 (HCT-116 colon): 2.27 µM
TGI (HCT-116 colon): 6.14 µM
GI50 (HCT-15 colon): 1.78 µM
TGI (HCT-15 colon): 3.53 µM
GI50 (HL-60(TB) leukemia): 2.06 µM
TGI (HL-60(TB) leukemia): 4.74 µM
GI50 (HOP-62 NSCLC): 15.3 µM
TGI (HOP-62 NSCLC): 32.4 µM
GI50 (HOP-92 NSCLC): 7.45 µM
TGI (HOP-92 NSCLC): 27.7 µM
GI50 (HS 578T breast): 2.32 µM
TGI (HS 578T breast): 7.61 µM
GI50 (HT29 colon): 2.41 µM
TGI (HT29 colon): 7.52 µM
GI50 (IGROV1 ovarian): 2.92 µM
TGI (IGROV1 ovarian): 10.2 µM
GI50 (K-562 leukemia): 3.1 µM
TGI (K-562 leukemia): > 100 µM
GI50 (KM12 colon): 4.67 µM
TGI (KM12 colon): 22.7 µM
GI50 (LOX IMVI melanoma): 1.66 µM
TGI (LOX IMVI melanoma): 3.05 µM
GI50 (M14 melanoma): 1.9 µM
TGI (M14 melanoma): 3.48 µM
GI50 (MALME-3M melanoma): 1.79 µM
TGI (MALME-3M melanoma): 3.19 µM
GI50 (MCF7 breast): 2.2 µM
TGI (MCF7 breast): 5.25 µM
GI50 (MDA-MB-231 breast): 2.08 µM
TGI (MDA-MB-231 breast): 4.06 µM
GI50 (MDA-MB-435): 1.76 µM
TGI (MDA-MB-435): 3.21 µM
GI50 (MOLT-4 leukemia): 2.93 µM
TGI (MOLT-4 leukemia): 11.9 µM
GI50 (NCI-H226 lung): 12.2 µM
TGI (NCI-H226 lung): 34.4 µM
GI50 (NCI-H23 lung): 7.35 µM
TGI (NCI-H23 lung): 22.3 µM
GI50 (NCI-H460 lung): 3.44 µM
TGI (NCI-H460 lung): 10.6 µM
GI50 (NCI-H522 lung): 1.81 µM
TGI (NCI-H522 lung): 3.92 µM
GI50 (NCI/ADR-RES ovarian): 5.29 µM
TGI (NCI/ADR-RES ovarian): 19.8 µM
GI50 (OVCAR-3 ovarian): 3.32 µM
TGI (OVCAR-3 ovarian): 10.5 µM
GI50 (OVCAR-4 ovarian): 3.43 µM
TGI (OVCAR-4 ovarian): 13 µM
GI50 (OVCAR-5 ovarian): 4.51 µM
TGI (OVCAR-5 ovarian): 16.5 µM
GI50 (OVCAR-8 ovarian): 4.44 µM
TGI (OVCAR-8 ovarian): 23.5 µM
GI50 (PC-3 prostate): 5.69 µM
TGI (PC-3 prostate): > 100 µM
GI50 (SF-268 CNS): 3.43 µM
TGI (SF-268 CNS): 20.8 µM
GI50 (SF-295 CNS): 1.86 µM
TGI (SF-295 CNS): 3.81 µM
GI50 (SF-539 CNS): 1.72 µM
TGI (SF-539 CNS): 3.11 µM
GI50 (SK-MEL-2 melanoma): 2.36 µM
TGI (SK-MEL-2 melanoma): 5.79 µM
GI50 (SK-MEL-28 melanoma): 1.73 µM
TGI (SK-MEL-28 melanoma): 3.22 µM
GI50 (SK-MEL-5 melanoma): 1.78 µM
TGI (SK-MEL-5 melanoma): 3.19 µM
GI50 (SK-OV-3 ovarian): 20.8 µM
TGI (SK-OV-3 ovarian): 39.5 µM
GI50 (SN12C renal): 6.48 µM
TGI (SN12C renal): 19.7 µM
GI50 (SNB-19 CNS): 5.75 µM
TGI (SNB-19 CNS): 18.3 µM
GI50 (SNB-75 CNS): 12.7 µM
TGI (SNB-75 CNS): 25.4 µM
GI50 (SW-620 colon): 2.02 µM
TGI (SW-620 colon): 4.04 µM
GI50 (T-47D breast): 2.76 µM
TGI (T-47D breast): 9 µM
GI50 (TK-10 renal): 4.54 µM
TGI (TK-10 renal): 16.5 µM
GI50 (UACC-257 melanoma): 1.83 µM
TGI (UACC-257 melanoma): 3.54 µM
GI50 (UACC-62 melanoma): 1.69 µM
TGI (UACC-62 melanoma): 3.13 µM
GI50 (UO-31 renal): 2.35 µM
TGI (UO-31 renal): 7.81 µM

— PubChem BioAssay (NCI)
